Columns and labels:
[1] = test system: EEG frequency bands (delta, theta activity); details: cited from earlier work
[2] = test system: electrical power of four rat brain areas (frontal cortex, hippocampus, striatum, reticular formation); assay: Tele-Stereo-EEG: continuous recording of intracerebral field potentials in the freely moving rat; assay type: in vivo
Description: Analysis of brain field potentials (“Tele-Stereo-EEG”) has been proven to be a very sensitive tool for the characterization of drug effects on the central nervous system (Dimpfel et al., 1986). After administration of a centrally active drug, quantitative changes in the brain field potentials can be considered as a characteristic fingerprint of that particular drug. “Fingerprints” of more than 100 compounds have been obtained including 8 established drug categories, e.g. analgesics, antidepressants, neuroleptics, stimulants, tranquilizers, sedatives and narcotics. Different dosages of the same drug cause quantitative changes in electrical power. […] Direct comparison with specific reference drugs, or by discriminant analysis with reference to an extensive fingerprint database, permits the detection of any possible similarities with established drugs. In general, “fingerprints” show prominent differences for drugs prescribed for different indications and are similar for drugs with similar indication (Dimpfel 2003). Furthermore, the pattern of EEG changes in the rat is a useful tool in predicting possible changes in the EEG power spectrum in humans.
Five intraperitoneal doses (30 mg/kg, 100 mg/kg, 300 mg/kg, 600 mg/kg and 1000 mg/kg body weight) of sodium (R)-3-hydroxybutyrate (BHB) were investigated using the “Tele-Stereo-EEG” animal model consisting of continuous recording of intracerebral field potentials in the freely moving rat. No effects could be measured using 1 ml/kg of a solution containing 20 mM of Na-bicarbonate (pH 8.4 or pH 12.5) for control purposes. […] Most marked changes were observed within the alpha2 range.
Adult Fisher rats (4-6 month of age and day—night converted, weight about 400 g) were implanted with 4 bipolar concentric steel electrodes using a stereotactic surgical procedure (Paxinos and Watson, 1982). All four electrodes were placed 3 mm lateral within the left hemisphere. Anterior coordinates were 12.2, 5.7, 9.7 and 3.7 mm for frontal cortex, hippocampus, striatum and reticular formation, respectively. A baseplate carrying the electrodes and a 5-pin-plug was fixed to the skull by dental cement attached to 3 steel screws fixed into the skull. Animals were given two weeks for recovery from the surgical procedure. Experiments were performed in compliance with the German Health Authority Guidelines and with local authority approval. EEG signals were recorded from frontal cortex, hippocampus, striatum and reticular formation and were amplified and processed as described previously (see Dimpfel et al., 1986). After automatic artefact rejection, signals were collected in sweeps of 4 s duration and submitted to Fast Fourier transformation. The resulting electrical power spectra were divided into 6 frequency ranges: delta (0.8-4.5 Hz); theta (4.75-6.75 Hz); alpha1 (7.00-9.50 Hz); alpha2 (9.75-12.50 Hz); beta (12.75-18.50 Hz); beta2 (18.75-35.00 Hz). […] In an off-line procedure spectra were averaged to give 15 minute or longer periods for further statistical analysis.
Five dosages of BHB (30, 100, 300, 600 and 1000 mg/kg body weight) (supplied by Solvias AG, CH 4002 Basel, Switzerland, batch No: SO-1058.047.1.120) and a vehicle control (0.9% w/v saline) were administered intraperitoneously to a group of 12 animals using a crossover design with at least 3 drug holidays in between the applications. Additional controls consisted of a 1 ml/kg of a solution containing 20 mM of Na-bicarbonate (adjusted to 8.4 and pH 12.5 obtained by titration with 1N NaOH) were tested to ascertain possible effects due to the alkaline pH of the BHB solution. After a pre-drug period of 45 minutes for baseline recording, drug effects were observed continuously for 300 minutes. Changes of electrical power (μV2W) are expressed as % of the 45 min. pre-drug values. Multivariate statistics were calculated according to Ahrens and Lauter (1974).

[3] = BHB 100 mg/kg i.p. single dose, rat
[4] = BHB 300 mg/kg i.p. single dose, rat

In the case of `Clc1cccc(Cl)c1N=C1NCCN1` [clonidine], the “change of theta activity” value ([1]; drug down regulating the norepinephrine system (presynaptic adrenergic alpha2 receptor)) is listed as “increases”.

With `C[C@@H](O)CC(=O)[O-].[Na+]` [BHB, sodium (R)-3-hydroxybutyrate] the “discriminant analysis of EEG fingerprint (24 variables)” value ([2]; 6 frequency ranges, 4 brain areas, one time period) was “close proximity to paroxetine and tramadol”, the “effects on EEG frequencies relative to the saline control” value ([2]; BHB 30 mg/kg body weight i.p. single dose, rat) was “no statistically significant effects” and the “duration of EEG effects” value [2, 3] was 1 to 2 h. The “statistical significance of EEG changes” value [2, 3] was “not statistically significant”, the “EEG frequency changes (electrical power, % of pre-drug values)” value ([2]; BHB 100 mg/kg i.p. single dose, rat, all regions, mainly alpha2, less delta) was “decrease of electrical power” and the “EEG frequency changes (electrical power, % of pre-drug values)” value [2, 4] was “decreases in alpha2 power throughout all brain regions”. For the same compound, the “duration of pattern of EEG changes” value [2, 4] was “two”, the “statistical significance of EEG changes” value ([2]; BHB 300 mg/kg i.p. single dose, rat, by brain region) was “statistically significant for the frontal cortex, hippocampus and reticular formation, but not for the striatum” and the “duration of EEG effects” value ([2]; BHB 600 mg/kg i.p. single dose, rat, generally, except reticular formation) was 2 h. For the same compound, the “statistical significance of EEG changes” value ([2]; BHB 600 mg/kg i.p. single dose, rat, including first hour within striatum) was “statistically highly significant”, the “duration of decreases of power in the reticular formation” value ([2]; BHB 600 mg/kg i.p. single dose, rat) was “persisted throughout the third hour” and the “EEG frequency changes (electrical power, % of pre-drug values)” value ([2]; BHB 1000 mg/kg i.p. single dose, rat) was “more prominent decreases of power lasting into the third hour”. The “statistical significance of EEG changes” value ([2]; BHB 1000 mg/kg i.p. single dose, rat, even 5th hour within reticular formation) was “statistically highly significant”, the “duration of decreases of power in the reticular formation” value ([2]; BHB 1000 mg/kg i.p. single dose, rat, total experimental time) was 5 h and the “similarity of EEG electrical fingerprint to reference drugs” value ([2]; BHB at a lower dosage, vs galanthamine 3 mg/kg and paroxetine 2 mg/kg) was “similarity to the “electrical fingerprints” of the acetylcholine esterase inhibitor galanthamine and also the antidepressant paroxetine”. For the same compound, the “statistical significance of EEG changes” value ([2]; BHB dose levels of 300-1000 mg/kg i.p., rat) was “statistically highly significant” and the “similarity of EEG profile to reference drugs” value ([2]; higher dosages of BHB, vs tramadol 10 mg/kg) was “reminiscent of the effects as observed after the administration of tramadol”.

For `CN1[C@@H]2C[C@@H](OC(=O)[C@H](CO)c3ccccc3)C[C@H]1[C@@H]1O[C@@H]12` [scopolamine], the “change of delta activity” value ([1]; drugs affecting the cholinergic system) is given as “increase of power”.
